Assay results as given in ChEMBL document CHEMBL3259801, “Design and synthesis of new vancomycin derivatives” (Bioorg Med Chem Lett, 2014).
In brackets after ≈: the same amount, converted by molar mass.

What was measured:
Staphylococcus aureus [1] = test: Antibacterial activity against vancomycin-sensitive Staphylococcus aureus Newman assessed as inhibition of bacterial growth after 16 hrs; assay type: functional, organism-based
Staphylococcus aureus [2] = test: Antibacterial activity against vancomycin-intermediate resistant Staphylococcus aureus Mu50 assessed as inhibition of bacterial growth after 16 hrs; assay type: functional, organism-based; conditions: Mu50, 16 h

Row | SMILES | IC50 (Staphylococcus aureus [1]) [µg/mL] | IC50 (Staphylococcus aureus [2]) [µg/mL]
1 | CN[C@H](CC(C)C)C(=O)N[C@H]1C(=O)N[C@@H](CC(N)=O)C(=O)N[C@H]2C(=O)N[C@H]3C(=O)N[C@H](C(=O)N[C@H](C(=O)O)c4cc(O)cc(O)c4-c4cc3ccc4O)[C@H](O)c3ccc(c(Cl)c3)Oc3cc2cc(c3O[C@@H]2O[C@H](CO)[C@@H](O)[C@H](O)[C@H]2O[C@H]2C[C@](C)(NCc3ccc(-c4ccc(Cl)cc4)cc3)[C@H](O)[C@H](C)O2)Oc2ccc(cc2Cl)[C@H]1O | < 0.125 | 2 (≈ 1.21 µM)
2 | CN[C@H](CC(C)C)C(=O)N[C@H]1C(=O)N[C@@H](CC(N)=O)C(=O)N[C@H]2C(=O)N[C@H]3C(=O)N[C@H](C(=O)N[C@H](C(=O)O)c4cc(O)cc(O)c4-c4cc3ccc4O)[C@H](O)c3ccc(c(Cl)c3)Oc3cc2cc(c3O[C@@H]2O[C@H](CO)[C@@H](O)[C@H](O)[C@H]2O[C@H]2C[C@](C)(NCC(OCc3ccccc3)C(=O)OC)[C@H](O)[C@H](C)O2)Oc2ccc(cc2Cl)[C@H]1O (stereo not given in full) | 8 (≈ 4.87 µM) | 32 (≈ 19.5 µM)
3 | CN[C@H](CC(C)C)C(=O)N[C@H]1C(=O)N[C@@H](CC(N)=O)C(=O)N[C@H]2C(=O)N[C@H]3C(=O)N[C@H](C(=O)N[C@H](C(=O)O)c4cc(O)cc(O)c4-c4cc3ccc4O)[C@H](O)c3ccc(c(Cl)c3)Oc3cc2cc(c3O[C@@H]2O[C@H](CO)[C@@H](O)[C@H](O)[C@H]2O[C@H]2C[C@](C)(NCC(OCc3ccc(-c4ccc(Cl)cc4)cc3)C(=O)OC)[C@H](O)[C@H](C)O2)Oc2ccc(cc2Cl)[C@H]1O (stereo not given in full) | < 0.125 | 2 (≈ 1.14 µM)
4 | CCCCOC(CN[C@@]1(C)C[C@H](O[C@H]2[C@H](Oc3c4cc5cc3Oc3ccc(cc3Cl)[C@@H](O)[C@@H](NC(=O)[C@@H](CC(C)C)NC)C(=O)N[C@@H](CC(N)=O)C(=O)N[C@H]5C(=O)N[C@H]3C(=O)N[C@H](C(=O)N[C@H](C(=O)O)c5cc(O)cc(O)c5-c5cc3ccc5O)[C@H](O)c3ccc(c(Cl)c3)O4)O[C@H](CO)[C@@H](O)[C@@H]2O)O[C@@H](C)[C@H]1O)C(=O)OC (stereo not given in full) | 16 (≈ 9.95 µM) | 64 (≈ 39.8 µM)
5 | CCCCCCOC(CN[C@@]1(C)C[C@H](O[C@H]2[C@H](Oc3c4cc5cc3Oc3ccc(cc3Cl)[C@@H](O)[C@@H](NC(=O)[C@@H](CC(C)C)NC)C(=O)N[C@@H](CC(N)=O)C(=O)N[C@H]5C(=O)N[C@H]3C(=O)N[C@H](C(=O)N[C@H](C(=O)O)c5cc(O)cc(O)c5-c5cc3ccc5O)[C@H](O)c3ccc(c(Cl)c3)O4)O[C@H](CO)[C@@H](O)[C@@H]2O)O[C@@H](C)[C@H]1O)C(=O)OC (stereo not given in full) | 2 (≈ 1.22 µM) | 4 (≈ 2.45 µM)
6 | CN[C@H](CC(C)C)C(=O)N[C@H]1C(=O)N[C@@H](CC(N)=O)C(=O)N[C@H]2C(=O)N[C@H]3C(=O)N[C@H](C(=O)N[C@H](C(=O)O)c4cc(O)cc(O)c4-c4cc3ccc4O)[C@H](O)c3ccc(c(Cl)c3)Oc3cc2cc(c3O[C@@H]2O[C@H](CO)[C@@H](O)[C@H](O)[C@H]2O[C@H]2C[C@](C)(NCC(OCc3ccccc3)C(=O)O)[C@H](O)[C@H](C)O2)Oc2ccc(cc2Cl)[C@H]1O (stereo not given in full) | 16 (≈ 9.83 µM) | 64 (≈ 39.3 µM)
7 | CN[C@H](CC(C)C)C(=O)N[C@H]1C(=O)N[C@@H](CC(N)=O)C(=O)N[C@H]2C(=O)N[C@H]3C(=O)N[C@H](C(=O)N[C@H](C(=O)O)c4cc(O)cc(O)c4-c4cc3ccc4O)[C@H](O)c3ccc(c(Cl)c3)Oc3cc2cc(c3O[C@@H]2O[C@H](CO)[C@@H](O)[C@H](O)[C@H]2O[C@H]2C[C@](C)(NCC(OCc3ccc(-c4ccc(Cl)cc4)cc3)C(=O)O)[C@H](O)[C@H](C)O2)Oc2ccc(cc2Cl)[C@H]1O (stereo not given in full) | < 0.125 | 2 (≈ 1.15 µM)
8 | CCCCOC(CN[C@@]1(C)C[C@H](O[C@H]2[C@H](Oc3c4cc5cc3Oc3ccc(cc3Cl)[C@@H](O)[C@@H](NC(=O)[C@@H](CC(C)C)NC)C(=O)N[C@@H](CC(N)=O)C(=O)N[C@H]5C(=O)N[C@H]3C(=O)N[C@H](C(=O)N[C@H](C(=O)O)c5cc(O)cc(O)c5-c5cc3ccc5O)[C@H](O)c3ccc(c(Cl)c3)O4)O[C@H](CO)[C@@H](O)[C@@H]2O)O[C@@H](C)[C@H]1O)C(=O)O (stereo not given in full) | 64 (≈ 40.2 µM) | 128 (≈ 80.3 µM)
9 | CCCCCCOC(CN[C@@]1(C)C[C@H](O[C@H]2[C@H](Oc3c4cc5cc3Oc3ccc(cc3Cl)[C@@H](O)[C@@H](NC(=O)[C@@H](CC(C)C)NC)C(=O)N[C@@H](CC(N)=O)C(=O)N[C@H]5C(=O)N[C@H]3C(=O)N[C@H](C(=O)N[C@H](C(=O)O)c5cc(O)cc(O)c5-c5cc3ccc5O)[C@H](O)c3ccc(c(Cl)c3)O4)O[C@H](CO)[C@@H](O)[C@@H]2O)O[C@@H](C)[C@H]1O)C(=O)O (stereo not given in full) | 4 (≈ 2.47 µM) | 8 (≈ 4.93 µM)
10 | CN[C@H](CC(C)C)C(=O)N[C@H]1C(=O)N[C@@H](CC(N)=O)C(=O)N[C@H]2C(=O)N[C@H]3C(=O)N[C@H](C(=O)N[C@H](C(=O)O)c4cc(O)cc(O)c4-c4cc3ccc4O)[C@H](O)c3ccc(c(Cl)c3)Oc3cc2cc(c3O[C@@H]2O[C@H](CO)[C@@H](O)[C@H](O)[C@H]2O[C@H]2C[C@](C)(N)[C@H](O)[C@H](C)O2)Oc2ccc(cc2Cl)[C@H]1O [VANCOMYCIN] | 2 (≈ 1.38 µM) | 8 (≈ 5.52 µM)
